Laboratory results: ChEMBL document CHEMBL1201862, “PubChem BioAssay data set” (2004)
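1) Cells in 96-well plates. 2) Compound, 48 h, 5 concentrations. 3) Linear interpolation between surrounding doses. 4) Unreached endpoint = highest concentration. Abbreviation: GI50, concentration required for 50% inhibition of growth.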 Calls of active or inactive are those of the source. No stated cut-off is given here; in the data, active = GI50 up to about 1.1 µM and inactive = higher.

Legend:
Assay in all cases: inhibition of tumour cell growth, NCI panel, 48 h
[1] = tested on: HCT-15
[2] = tested on: HCC 2998
[3] = tested on: NCI-H460
[4] = tested on: SF-295
[5] = tested on: UO-31
[6] = tested on: HOP-92
[7] = tested on: MDA-N
[8] = tested on: IGROV-1
[9] = tested on: NCI-H23
[10] = tested on: HCT-116
[11] = tested on: ACHN
[12] = tested on: NCI-H226
[13] = tested on: RXF 393
[14] = tested on: OVCAR-8
[15] = tested on: RPMI-8226
[16] = tested on: MOLT-4
[17] = tested on: MCF7
[18] = tested on: SK-OV-3
[19] = tested on: K562
[20] = tested on: COLO 205

| SMILES | GI50 [1] [µM] | GI50 [2] | GI50 [3] | GI50 [4] | GI50 [5] | GI50 [6] | GI50 [7] | GI50 [8] | GI50 [9] | GI50 [10] | GI50 [11] | GI50 [12] | GI50 [13] | GI50 [14] | GI50 [15] | GI50 [16] | GI50 [17] | GI50 [18] | GI50 [19] | GI50 [20] |
| --- | --- | --- | --- | --- | --- | --- | --- | --- | --- | --- | --- | --- | --- | --- | --- | --- | --- | --- | --- | --- |
| NC1=C(Cl)C(=O)c2ccccc2C1=O | 3.46 | 10.6 µM (inactive) | 3.43 µM (inactive) | 6.87 µM (inactive) | 13.7 µM (inactive) | 14.6 µM (inactive) | 1.63 µM (inactive) | 9.82 µM (inactive) | 1.77 µM (inactive) | 3.77 µM (inactive) | 9.27 µM (inactive) | 7.35 µM (inactive) | 7.67 µM (inactive) | 8.34 µM (inactive) | 18.4 µM (inactive) | 5.7 µM (inactive) | 2.06 µM (inactive) | 2.52 µM (inactive) | 8.11 µM (inactive) | 11.3 µM (inactive) |
| O=C(O)/C=C/C(=O)Nc1cccc2c1-c1ccccc1C2=O | 10.2 | 22.2 µM (inactive) | 3.67 µM (inactive) | 3.57 µM (inactive) | 11.8 µM (inactive) | 4.06 µM (inactive) | 2.99 µM (inactive) | 4.75 µM (inactive) | 18.2 µM (inactive) | 42.8 µM (inactive) | 17.3 µM (inactive) | 31.2 µM (inactive) | 8.2 µM (inactive) | 21.6 µM (inactive) | 8.81 µM (inactive) | 2.63 µM (inactive) | 11.3 µM (inactive) | 22.9 µM (inactive) | 3.91 µM (inactive) | 13.1 µM (inactive) |
| COc1ccc2o/c(=N/c3ccccc3)c(C(N)=O)cc2c1 | > 100 | > 100 µM (inactive) | > 100 µM (inactive) | 74 µM (inactive) | > 36.7 µM (inactive) | > 50.9 µM (inactive) | 6.84 µM (inactive) | > 70.6 µM (inactive) | > 58.1 µM (inactive) | > 69.8 µM (inactive) | 19 µM (inactive) | > 85.3 µM (inactive) | 39.5 µM (inactive) | > 67.5 µM (inactive) | > 100 µM (inactive) | > 100 µM (inactive) | 45.9 µM (inactive) | 39.2 µM (inactive) | > 100 µM (inactive) | > 100 µM (inactive) |
| N/N=C(\c1nc2ccc([N+](=O)[O-])cc2nc1O)C(O)c1ccc(Cl)c(Cl)c1 (stereo not given) | > 100 | > 100 µM (inactive) | 82.4 µM (inactive) | > 100 µM (inactive) | 26.7 µM (inactive) | > 100 µM (inactive) | > 100 µM (inactive) | > 100 µM (inactive) | > 100 µM (inactive) | 71.3 µM (inactive) | 54.1 µM (inactive) | > 100 µM (inactive) | > 100 µM (inactive) | > 100 µM (inactive) | 22.8 µM (inactive) | 22 µM (inactive) | > 100 µM (inactive) | 88.1 µM (inactive) | 96.6 µM (inactive) | > 100 µM (inactive) |
| COC(=O)C1=C(C)C=C(N2CCOCC2)C(C(=O)OC)C1c1ccccc1 (stereo not given) | > 10 | > 10 µM (inactive) | > 10 µM (inactive) | > 10 µM (inactive) | > 10 µM (inactive) | > 10 µM (inactive) | > 10 µM (inactive) | > 10 µM (inactive) | > 10 µM (inactive) | > 10 µM (inactive) | > 10 µM (inactive) | > 10 µM (inactive) | > 10 µM (inactive) | > 10 µM (inactive) | > 10 µM (inactive) | > 10 µM (inactive) | > 10 µM (inactive) | > 10 µM (inactive) | > 10 µM (inactive) | > 10 µM (inactive) |
| CC(=O)OCC1OC(n2c(Br)nc3c2c(=O)n(C)c(=O)n3C)C(OC(C)=O)C1OC(C)=O (stereo not given) | > 100 | > 100 µM (inactive) | 84.3 µM (inactive) | > 100 µM (inactive) | > 100 µM (inactive) | 83 µM (inactive) | 33.6 µM (inactive) | > 100 µM (inactive) | 77.3 µM (inactive) | 35.1 µM (inactive) | 48.3 µM (inactive) | 71.6 µM (inactive) | > 100 µM (inactive) | 42 µM (inactive) | 27.9 µM (inactive) | > 100 µM (inactive) | 69.8 µM (inactive) | > 100 µM (inactive) | 53.3 µM (inactive) | 75 µM (inactive) |
| COC(CO[Si](C)(C)N[Si](C)(C)OCC(OC)c1ccccc1)c1ccccc1 (stereo not given) | > 100 | > 100 µM (inactive) | > 100 µM (inactive) | > 100 µM (inactive) | > 100 µM (inactive) | > 100 µM (inactive) | > 100 µM (inactive) | > 100 µM (inactive) | > 100 µM (inactive) | > 100 µM (inactive) | > 100 µM (inactive) | > 100 µM (inactive) | > 100 µM (inactive) | > 100 µM (inactive) | > 100 µM (inactive) | > 100 µM (inactive) | > 100 µM (inactive) | > 100 µM (inactive) | > 100 µM (inactive) | > 100 µM (inactive) |
| N#CS/C(C(Cl)=C(Cl)Cl)=C(/Cl)[N+](=O)[O-] | 2.32 | 18.6 µM (inactive) | 13.7 µM (inactive) | 22.2 µM (inactive) | 1.63 µM (inactive) | 2.37 µM (inactive) | 1.8 µM (inactive) | 2.32 µM (inactive) | 2.7 µM (inactive) | 1.5 µM (inactive) | 1.64 µM (inactive) | 7.66 µM (inactive) | 1.4 µM (inactive) | 1.75 µM (inactive) | 0.9 µM (active) | 0.6 µM (active) | 3.9 µM (inactive) | 17 µM (inactive) | 0.603 µM (active) | 1.49 µM (inactive) |
| CC(O)C1(O)C(O)CC(OC2c3cc4c(c(O)c3[C@@H]3C[C@@]2(C)OC32C=c3cc[nH]c3=N2)C(=O)c2cccc(O)c2C4=O)OC1C (stereo not given in full) | 2.03 | 1.11 µM (active) | 0.401 µM (active) | 1.87 µM (inactive) | 1.77 µM (inactive) | 1.64 µM (inactive) | 1.81 µM (inactive) | 0.592 µM (active) | 1.53 µM (inactive) | 0.789 µM (active) | 0.759 µM (active) | 0.701 µM (active) | 1.05 µM (active) | 0.959 µM (active) | 0.948 µM (active) | 0.334 µM (active) | 0.762 µM (active) | 1.75 µM (inactive) | 0.935 µM (active) | 0.697 µM (active) |
| CCCC(Sc1nc(N)nc2nc[nH]c12)C(=O)O (stereo not given) | 91.6 | 34.3 µM (inactive) | 67 µM (inactive) | 59.7 µM (inactive) | 65.2 µM (inactive) | > 100 µM (inactive) | 47.5 µM (inactive) | > 100 µM (inactive) | > 100 µM (inactive) | 42.1 µM (inactive) | > 100 µM (inactive) | > 100 µM (inactive) | 81.5 µM (inactive) | 56.2 µM (inactive) | 35.2 µM (inactive) | 33.2 µM (inactive) | 62.4 µM (inactive) | 58.3 µM (inactive) | 37.7 µM (inactive) | > 100 µM (inactive) |
| Nc1nc(Sc2ccc([N+](=O)[O-])cn2)c2nc[nH]c2n1 | 9.55 | 12.8 µM (inactive) | 4.88 µM (inactive) | 9.46 µM (inactive) | 3.99 µM (inactive) | 3.6 µM (inactive) | 3.61 µM (inactive) | 14.5 µM (inactive) | 8.05 µM (inactive) | 3.94 µM (inactive) | 12.3 µM (inactive) | 12.6 µM (inactive) | 2.73 µM (inactive) | 4.81 µM (inactive) | 14 µM (inactive) | 4.56 µM (inactive) | 5.89 µM (inactive) | 3.95 µM (inactive) | 7.01 µM (inactive) | 11.8 µM (inactive) |
| C/C(=N\NC(=S)N(C)C)c1ccccn1 | < 0.01 | 0.161 µM (active) | < 0.0156 µM (active) | < 0.01 µM (active) | 0.122 µM (active) | 0.498 µM (active) | 0.305 µM (active) | < 0.01 µM (active) | < 0.01 µM (active) | < 0.01 µM (active) | < 0.0122 µM (active) | 0.148 µM (active) | 0.41 µM (active) | < 0.01 µM (active) | < 0.0379 µM (active) | < 0.01 µM (active) | < 0.01 µM (active) | < 0.0264 µM (active) | < 0.01 µM (active) | < 0.01 µM (active) |
| O=C(/C=C/c1ccc(O)c(O)c1)Oc1ccccc1 | 2.74 | 18.6 µM (inactive) | 19.2 µM (inactive) | 19.5 µM (inactive) | 7.43 µM (inactive) | 14.9 µM (inactive) | 16.1 µM (inactive) | 4.19 µM (inactive) | 14.4 µM (inactive) | 9.71 µM (inactive) | 8.45 µM (inactive) | 35.1 µM (inactive) | 8.71 µM (inactive) | 12.7 µM (inactive) | 3.17 µM (inactive) | 0.268 µM (active) | 12.2 µM (inactive) | 45.6 µM (inactive) | 4.27 µM (inactive) | 9.57 µM (inactive) |
| CSc1ccccc1P(CCP(c1ccccc1SC)c1ccccc1SC)c1ccccc1SC | > 67 | 4.88 µM (inactive) | 3.13 µM (inactive) | 7.08 µM (inactive) | > 44.4 µM (inactive) | 61.1 µM (inactive) | 50.5 µM (inactive) | 0.8 µM (active) | 1 µM (active) | 0.413 µM (active) | 47.2 µM (inactive) | 10.4 µM (inactive) | 30.8 µM (inactive) | 8.73 µM (inactive) | 4.47 µM (inactive) | 2.22 µM (inactive) | 1.95 µM (inactive) | 16.3 µM (inactive) | 1.67 µM (inactive) | 0.697 µM (active) |
